Earlier results as cited in patent publication US11648207B1, “Extended release pharmaceutical composition of Clozapine” (priority 2021, dated 2023).

Legend:
[1] = in vivo

solubility in water: very slightly soluble in water
mean terminal half-life [1]: 12 h
SMILES: CN1CCN(C2=Nc3cc(Cl)ccc3Nc3ccccc32)CC1 [Clozapine, 8-chloro-11-(4-methyl-1-piperazinyl)-5H-dibenzo[b,e][1,4]diazepine]
